According to a melting point compilation (Tetko et al.):

SMILES | melting point
Nc1ccc2c(C(F)(F)F)cc(=O)oc2c1 | 223 °C
CCCCCCN(CCCCCC)C(=O)COC(=O)c1ccccc1 | 162 °C
COc1ccccc1C1CCNCC1 | 54 to 55 °C
Cc1cc([N+]([O-])=Nc2ccccc2)ccc1[N+]([O-])=Nc1ccccc1 | 100 °C
Nc1ccccc1C(=O)OCC=Cc1ccccc1 | 61 °C
O=C(Nc1ccc(Br)cc1Br)C(F)(F)C(F)(F)C(F)(F)C(F)(F)C(F)(F)C(F)(F)C(F)(F)C(F)(F)F | 95 °C
C=C(C)CCCCC | -90 °C
CCOC(=O)C(=O)C=CN(C)C | 38 °C
CN(C)C(=S)SSC(=S)N(C)C | 156 °C
Nc1ncccc1C=O | 101 °C
NC(=NO)c1cnccc1C(F)(F)F | 183 to 185 °C
O=C1NC(=O)C(=NNc2ccccc2)C(=O)N1 | 309 to 310 °C
CCC(=O)Nc1ccc(Cl)c(Cl)c1 | 92 °C
CN1CCC23C(=O)CC4C(=CCOC5CC(=O)N(c6c(O)cccc62)C3C54)C1 (stereo not drawn) | 282 °C
OC1(c2ccccc2)c2ccccc2Oc2ccccc21 | 158 to 162 °C
Brc1cccc(Br)c1Oc1ccccc1 | < 20 °C
CCCCCCCCCc1ccc(OCCOCCO)cc1 | 43 °C
CC(C)(C)NC(=O)COC(=O)c1ccccc1 | 112 °C
Oc1ccc(C(F)(F)F)cc1 | 46 °C
CC(=O)NCCO | 16 °C
O=C(C=Cc1ccccc1)n1ccnc1 | 127 to 133 °C
CN1CCC23c4c5ccc(OCc6ccccc6)c4OC2C(O)C=CC3C1C5 (stereo not drawn) | 132 °C
Brc1ccc(Oc2cccc(Br)c2)cc1 | < 20 °C
O=C(O)c1ccc(-c2ccc([N+](=O)[O-])cc2)o1 | 255 to 257 °C
OCC1(O)CC(O)C(O)CO1 (stereo not drawn) | 111 °C
NNC(=O)c1ccc(OCc2ccccc2)cc1 | 140 °C
C=CCCCCCCC1CO1 (stereo not drawn) | 25 °C
CC(CC(C(N)=O)(c1ccccc1)c1ccccc1)N(C)C (stereo not drawn) | 137 °C

SMILES | melting point
CCOP(=S)(OCC)Oc1ccc(=O)n(-c2ccccc2)n1 | 56.2 °C
O=Cc1ccc(-n2cccc2)cc1 | 94 to 95 °C
O=C(O)Cc1ccc(CO)cc1 | 133 °C
O=C1C(Cl)=C(Cl)C(=O)C(Cl)=C1Cl | 290 °C
NNC(=O)C(N)=O | 216 to 218 °C
O=Cc1cc(C#Cc2ccccc2)cs1 | 115 to 118 °C
CNC(=O)N(C)c1nc2ccccc2s1 | 120 °C
O=C1C(c2ccccc2)C(c2ccccc2)N1c1ccccc1 (stereo not drawn) | 134 °C
C=C(C)CCCCCCCCCCCCCCCCC | 20 °C
N#Cc1c(F)cccc1-n1cccc1 | 67 to 69 °C
O=C(n1ccnc1)C(F)(F)C(F)(F)C(F)(F)F | 11 °C
COP(=S)(OC)Oc1ccc([N+](=O)[O-])c(C)c1 | 3.4 °C
CCCOC(=O)CCC(=O)OCCC | -5.9 °C
O=C(O)c1ccc(Oc2ccccc2)o1 | 126 to 127 °C
O=C(O)C#Cc1cccc(C#CC(=O)O)c1 | 209 °C
O=[N+]([O-])C=Cc1ccccc1Cl | 48 °C
Cc1cc(Cl)ccc1N=CN(C)C | 35 °C
FC(F)(F)C(F)(F)C(F)(F)C(F)(F)C(F)(F)C(F)(F)C(F)(F)C(F)(F)Br | < 25 °C
CC(O)C(O)C(O)C(O)C=O (stereo not drawn) | 122 °C
Nc1ccccc1NC(C(=O)Nc1ccccc1)(c1ccccc1)c1ccccc1 | 160 °C
CCCCCCC(C=O)=Cc1ccccc1 | 39.2 °C
COc1ccc2c(CCN)c[nH]c2c1 | 143 to 146 °C
O=C(C=Cc1ccc(-c2cccc([N+](=O)[O-])c2)o1)c1ccccc1 | 146 to 147 °C
CN1CC2CC(C1)c1cccc(=O)n1C2 (stereo not drawn) | 137 °C
COc1ccc(OC)c(CCl)c1 | 69 to 71 °C
COc1ccc2c3c1OC1C(=O)CCC4(O)C(C2)N(C)CCC314 (stereo not drawn) | 219 °C
O=C(CBr)c1ccc(-c2ccccc2)cc1 | 125 °C

Second part, the compound after the results:

melting point | SMILES
129 °C | CCCC1C2=C(OC(=O)C1(C)C)c1ccc(OC)cc1CC2 (stereo not drawn)
80 °C | CC1CCC(C)(COC(=O)c2ccccc2C(=O)OCC2(C)CCC(C)C2(C)C)C1(C)C (stereo not drawn)
229 °C | O=[N+]([O-])c1ccc(-c2nnc3n2NC(c2ccc([N+](=O)[O-])cc2)S3)cc1 (stereo not drawn)
210 °C | CN(C)c1ccc(C=Cc2nc3ccccc3s2)cc1
118 °C | Cc1cc2ccccc2c2ccc3ccccc3c12
156 °C | COc1ccc(C2C(=O)c3ccccc3C2=O)cc1
229 °C | NS(=O)(=O)c1cc(Cl)c(Cl)c(S(N)(=O)=O)c1
180 °C | O=C(OCC(O)CO)c1ccccc1Nc1ccnc2c(C(F)(F)F)cccc12 (stereo not drawn)
209 °C | CCOC(=O)C1=C(C)NC(=O)NC1c1cccc(OC)c1O (stereo not drawn)
206 to 215 °C | Sc1nccc(-c2cccs2)n1
210 °C | O=S1(=O)Cc2ncc3ccccc3c2C1
147 °C | O=c1c2ccccc2cc2c3ccccc3ccn12
150 to 151 °C | CC(C)(C)OC(=O)Nc1cc(O)cc(C(=O)O)c1
170 to 173 °C | CSc1nc(=O)n2ccc(C)cc2n1
43.5 °C | C#CC(C)N(C(=O)CCl)c1ccccc1 (stereo not drawn)
-96 °C | CC(C)(C)C1CCCC1
106 °C | COc1ccc(-c2nn3c(COc4ccccc4)nnc3s2)cc1OC
-16 °C | CCc1c(C)cc(C)cc1C
170 to 172 °C | CC(=O)OC1CCC2(C)C(=CCC3C2CCC2(C)C3CCC2C2(CBr)OCCO2)C1 (stereo not drawn)
231 to 233 °C | COc1cc(CC2C(=O)NC(=N)N2C)ccc1O (stereo not drawn)
245 °C | Nc1c2c(nc3ccccc13)CCCC2O (stereo not drawn)
51 °C | O=C=Nc1csc(-c2ccc(C(F)(F)F)cc2)n1
220 °C | COc1cc2c(cc1O)C(Cc1ccc(O)cc1)NCC2 (stereo not drawn)
54 to 56 °C | O=[N+]([O-])c1cc(C(F)(F)F)ccc1N1CCCC1
184 °C | NC(=O)Cc1cccc2ccccc12

melting point | SMILES
253 to 256 °C | O=CNc1ccc(C2=NNC(=O)CC2)cc1
63 to 64 °C | Cc1cc(C)c(N=C=S)c(C)c1
220 to 221 °C | CC(O)C1(O)CC2C3CCC4(C)CC(O)CCC4(C)C3CCC2(C)C1 (stereo not drawn)
147 to 151 °C | COc1ccc(-c2ocnc2C(=O)O)cc1
123 °C | COC(=O)c1cccc(C(=O)OC)n1
196 to 198 °C | COCc1cc(=O)oc2cc(O)c(Cl)cc12
111 °C | c1cc(OCC2CO2)ccc1OCC1CO1 (stereo not drawn)
72 °C | COc1c(C)c(C)c(OC)c(Br)c1C
143 to 146 °C | COc1ccc(-c2cc(-c3ccc(OC)cc3)cc(-c3ccc(OC)cc3)c2)cc1
41 °C | O=C1Cc2cccc(F)c21
34 to 37 °C | COC(=O)Cc1cccc(OCc2ccccc2)c1
64 °C | CC1(C)CC(NCCCCCCNC2CC(C)(C)NC(C)(C)C2)CC(C)(C)N1
210 °C | Cc1ccc(C(=O)O)cc1O
43 to 48 °C | CCCOc1cc(O)cc(OCCC)c1
126 to 129 °C | CCOC(=O)c1csc(Cn2cnc(Cl)c2Cl)n1
43.4 °C | CCCSc1ncccc1C(=O)Cl
144 to 147 °C | Nc1snnc1-c1ccccc1
169 °C | CC(Oc1ccc(Cl)cc1Cl)C(=O)Nc1ccc2nc(SCc3ccccc3)sc2c1 (stereo not drawn)
174 °C | CCOC(=O)C(=Cc1cc(N)cc(C=C(C(=O)OCC)C(=O)OCC)c1)C(=O)OCC
118 to 120 °C | CC=C1CCC2C3CCC4CC(OC(C)=O)CCC4(C)C3CCC12C (stereo not drawn)
57 to 62 °C | COC(=O)CC(=O)c1ccc(C(F)(F)F)cc1
300 °C | Oc1c(-c2ccc3ccccc3c2O)ccc2ccccc12
48.5 °C | CC(C)CC=NO
-17 °C | C1CCC(CCCC2CCCCC2)CC1
67 to 73 °C | COC(=O)[C@H](CSCc1ccccc1)NC(C)=O

melting point | SMILES
230 to 234 °C | Cc1cc([N+](=O)[O-])c[nH]c1=O
132 °C | COc1ccc(C=CNC=O)cc1
39 °C | COc1cc(C)cc(OC)c1O
133 to 136 °C | Nc1oncc1-c1ccccn1
144 °C | Cn1c(=O)c2c(ncn2CC2OCCO2)n(C)c1=O
232 °C | Cc1nc(=O)c2ccccc2[nH]1
135 °C | Cc1cc2c(o1)-c1c(oc3ccccc13)CCC2(C)c1ccccc1 (stereo not drawn)
234 °C | Fc1ccc(-c2n[nH]c(=S)n2-n2cccc2)cc1
78.5 °C | CNS(=O)(=O)c1ccc(C)cc1
59 to 62 °C | O=S(=O)(CCSCCO)c1ccc(Cl)cc1
102 to 103 °C | Cn1ccc2cc(N)ccc21
139 °C | O=c1[nH]oc2ccccc12
102 to 104 °C | Cc1c(C#N)[nH]c2ccccc12
83 °C | COC(=O)c1ccccc1C(=O)O
210 to 211 °C | Cc1ccccc1/C=C(\C#N)c1nc2ccccc2[nH]1
69.5 °C | O=C(O)C1(C(F)(F)F)CCCCC1
99 to 100 °C | COc1ccccc1C(O)=C1C(=O)CN(C(C)C)C1=O
135 to 140 °C | CC(C)(C)OC(=O)N[C@@H](Cc1ccc(O)cc1)C(=O)O
167 °C | CC(C)Nc1nc(Cl)nc(NC2CC2)n1
137 °C | CC(C)(C)OC(=O)NC(Cc1cccnc1)C(=O)O (stereo not drawn)
136 to 137 °C | O=C(Cl)c1cccc(-c2ncccn2)c1
118 to 119 °C | O=S(=O)(Cl)c1ccc2ncsc2c1
229 °C | O=C1c2ncccc2-c2cccnc21
